Source: patent publication US7109173B1, “Transport of nucleotides, oligonucleotides and polynucleotides into the cytoplasm and nucleus of cells by peptides” (priority 2004, dated 2006)

Experiments:
Type in all cases: cell-based
human fibroblasts = assay: Uptake of polynucleotides in the presence and absence of peptides by human fibroblasts, spectrophotometric; set-up: Absorbance, Peptides / Absorbance, Without Peptides: dose or concentration left out as unconfirmed; conditions: 24 hrs minus zero time values; for μ grams, Peptides / Absorbance, Peptides: with peptides; for Absorbance, Peptides / Absorbance, Without Peptides: absorbance at 260 nm, ± standard deviation
Description: 1. Analysis of control cells stopped at zero time gives the original content of nucleotides of interest.
2. Analysis of control cells stopped after 24 hour incubation gives the change in nucleotide content during the 24 hr period. That is, 24 hr content of control cells minus zero time control cells nucleotide content equals net change.
3. Analysis of nucleotide treated cells at zero time incubation gives the initial content and/or bound nucleotides.
4. Analysis of nucleotide treated cells at 24 hour time gives the amount present after 24 hours.
5. 24 hour content minus zero time content gives the net change in nucleotide content.
6. The net content of the 24 hr nucleotide treated cells minus the zero time content of nucleotides gives the amount transported by the peptides.
7. The net values are previously corrected for the amount in the original media and wash for the treated cells.
(§1) Fibroblasts cells were incubated for 24 hrs with and without fetal calf serum. Cells harvested at zero time served as controls. They were subjected to all of the analyses performed on experimental cells. Cells were harvested as described in ‘section V. Methods and Materials’. Macrophages were treated the same as previously described for fibroblasts except human serum was used in place of fetal calf serum and they were not cultured without serum. Cells were incubated with predetermined amounts of nucleotides with and without peptide Incubations were stopped at zero time and 24 hrs. The media harvested at zero and 24 hrs was saved for analysis for peptides and nucleotides. Cells were washed and harvested as described previously. The wash was saved for analysis of peptides and nucleotides. Some cells were sonicated and aliquots analyzed for radioactivity by a liquid scintillation spectrometer (counter). […] Spectrophotometric analysis quantifies the amount of nucleotide retained. VI: Extraction of lipids—The non-saponifiable lipids and free fatty acids were extracted using petroleum ether (30–60° C.). Neutral lipids were extracted with petroleum ether without prior saponification. […] The latter two methods, when used, necessitate extensive chromatographic separation of mevalonate from the phospholipids and neutral lipids. […] Control experiments in which the reaction was stopped at zero time and in which the enzyme preparation is omitted show no radioactivity is extracted when the usual incubation, saponification, and isolation procedures were performed.
(§2) a) Isolating the peptides then b) incubating the peptide sample with predetermined amounts of nucleotides with and without peptides. After this, the nucleotides are transferred into the cells. Cells were treated with homopolymers in the presence and absence of the peptides. Uptake was determined as described under Methods and Materials, above. The polynucleotides were quantified spectrophotometrically and by single cell fluorescence analysis using syto-13 (Molecular Probes).
The cells were cultured as described under Methods, above. The experiments were stopped at zero time and 24 hours. Values are obtained by subtracting initial zero time values from those of 24 hrs. Values are ±standard deviation. Absorbance measured spectrophotometrically at […].

cells = assay: Determination of cellular loci of administered polynucleotides by differential centrifugation; set-up: Absorbance, Nuclear Fraction / Absorbance, Microsomal Fraction: dose or concentration left out as unconfirmed; conditions: for μ grams, Microsomal Fraction / μ grams, Nuclear Fraction: calculated after subtracting zero time control values from experimental values; for Absorbance, Microsomal Fraction / Absorbance, Nuclear Fraction: observed values, absorbance at 260 nm
Description: as §1
Cells were cultured and treated as described under Methods, above. Cells were subjected to differential centrifugation. μ grams calculated after correction of values by subtracting zero time control values from experimental values. No significant absorbances of nucleotides were detected in the experimental samples in the mitochondrial-lysosomal fraction when zero time control values were subtracted from the experimental values. Absorbance was measured spectrophotometrically at […]. […] In a preferred embodiment of this invention, the target cells are smooth muscle cells and macrophages which are found in atheromatous plaques. The plaques are a focal thickening of the intima caused by proliferation of smooth muscle cells.

Fibroblasts = assay: Uptake of homopolymers by fibroblasts, single cell fluorescence analysis with syto-13; conditions: fibroblasts stained with syto-13, relative intensity ± standard deviation, n = number of cells
Description: as §1, §2
Fibroblasts were cultured as described under V.Methods and Materials. Cells were stained with syto-13 (Molecular Probes). Single cell fluorescence analysis was performed using a Zeiss microsope photometer. Values are relative intensity ±standard deviation. N=number of cells.

μ grams, Microsomal Fraction (cells) [μ grams]	Absorbance, Microsomal Fraction (cells)	Substance	μ grams, Peptides (human fibroblasts) [μ grams]	Absorbance, Peptides (human fibroblasts)	μ grams, Without Peptides (human fibroblasts) [μ grams]	Absorbance, Without Peptides (human fibroblasts)	μ grams, Nuclear Fraction (cells) [μ grams]	Absorbance, Nuclear Fraction (cells)	Fluorescence Relative Intensity, Control (Fibroblasts)	Fluorescence Relative Intensity, Experimental (Fibroblasts)
155	0.242 ± 0.038	Polyadenylic acid	252	0.200 ± 0.101	59	0.047 ± 0.025	59.1	0.265 ± 0.061	11.7 ± 3.8 (n = 22)	27.4 ± 7.5 (n = 23)
153	0.236 ± 0.025	Polycytidylic acid	380	0.209 ± 0.028	94	0.052 ± 0.031	107.4	0.254 ± 0.026	3.3 ± 0.6 (n = 14)	14.9 ± 1.6 (n = 14)
		Polyguanylic acid	1160	0.444 ± 0.058	580	0.223 ± 0.084	747.7	0.354 ± 0.030	13.1 ± 3.1 (n = 24)	39.2 ± 9.5 (n = 17)
186	0.313 ± 0.030	Polyuridylic acid	436	0.370 ± 0.07	82	0.071 ± 0.013	246.1	0.326 ± 0.050	4.4 ± 1.3 (n = 22)	16.8 ± 4.6 (n = 23)
